IC50, EC50 and AC50 data for 8 compounds are collected here from ChEMBL document CHEMBL1201862, “PubChem BioAssay data set” (2004).

Active and inactive are the calls of the source.

Test [1] addresses T1, Corticotropin-releasing factor receptor 2/Corticotropin-releasing factor-binding protein (Homo sapiens, UniProt P24387+Q13324).
T1 sequence (Q13324 whole entry): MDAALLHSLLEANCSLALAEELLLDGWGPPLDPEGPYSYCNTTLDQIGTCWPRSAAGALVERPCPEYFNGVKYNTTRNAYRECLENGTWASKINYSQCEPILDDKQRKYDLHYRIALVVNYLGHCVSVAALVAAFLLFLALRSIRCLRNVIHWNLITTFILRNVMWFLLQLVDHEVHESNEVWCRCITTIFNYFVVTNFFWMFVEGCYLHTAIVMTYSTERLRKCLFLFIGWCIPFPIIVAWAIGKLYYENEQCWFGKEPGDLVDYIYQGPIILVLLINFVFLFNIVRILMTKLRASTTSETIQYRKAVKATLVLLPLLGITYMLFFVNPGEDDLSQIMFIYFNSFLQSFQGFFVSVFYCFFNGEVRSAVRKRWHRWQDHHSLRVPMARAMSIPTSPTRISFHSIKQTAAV
T1 sequence (P24387 whole entry): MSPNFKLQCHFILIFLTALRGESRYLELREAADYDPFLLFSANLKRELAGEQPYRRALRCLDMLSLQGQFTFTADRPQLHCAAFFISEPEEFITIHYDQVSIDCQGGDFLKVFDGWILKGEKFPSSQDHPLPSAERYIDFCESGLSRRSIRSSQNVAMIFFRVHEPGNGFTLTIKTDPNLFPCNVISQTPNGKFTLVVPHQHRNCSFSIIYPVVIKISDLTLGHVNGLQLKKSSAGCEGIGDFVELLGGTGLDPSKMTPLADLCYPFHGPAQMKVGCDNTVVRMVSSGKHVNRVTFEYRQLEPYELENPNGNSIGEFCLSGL
Kind of test: Dose Response confirmation of uHTS hits for small molecule antagonists of the CRF-binding protein and CRF-R2 receptor complex. It counts as functional. As to conditions: read-out: IC50_Mean.

In test [2] the target is T1, Corticotropin-releasing factor receptor 2/Corticotropin-releasing factor-binding protein. Briefly: activators of CRF receptor 2 with binding protein – uHTS hits, confirmation (AID 602473). Format: functional. As to conditions: read-out: EC50_Mean.
A short description of test [3]: HEK293T cell cytotoxicity, dose response, cytotoxicity control for HIV Vif inhibitor project, cherry-picks (AID 652208). Format: functional, cell-based.
Test [4] addresses T2, Short transient receptor potential channel 4 (Mus musculus, UniProt Q9QUQ5).
T2 sequence (Q9QUQ5 whole entry): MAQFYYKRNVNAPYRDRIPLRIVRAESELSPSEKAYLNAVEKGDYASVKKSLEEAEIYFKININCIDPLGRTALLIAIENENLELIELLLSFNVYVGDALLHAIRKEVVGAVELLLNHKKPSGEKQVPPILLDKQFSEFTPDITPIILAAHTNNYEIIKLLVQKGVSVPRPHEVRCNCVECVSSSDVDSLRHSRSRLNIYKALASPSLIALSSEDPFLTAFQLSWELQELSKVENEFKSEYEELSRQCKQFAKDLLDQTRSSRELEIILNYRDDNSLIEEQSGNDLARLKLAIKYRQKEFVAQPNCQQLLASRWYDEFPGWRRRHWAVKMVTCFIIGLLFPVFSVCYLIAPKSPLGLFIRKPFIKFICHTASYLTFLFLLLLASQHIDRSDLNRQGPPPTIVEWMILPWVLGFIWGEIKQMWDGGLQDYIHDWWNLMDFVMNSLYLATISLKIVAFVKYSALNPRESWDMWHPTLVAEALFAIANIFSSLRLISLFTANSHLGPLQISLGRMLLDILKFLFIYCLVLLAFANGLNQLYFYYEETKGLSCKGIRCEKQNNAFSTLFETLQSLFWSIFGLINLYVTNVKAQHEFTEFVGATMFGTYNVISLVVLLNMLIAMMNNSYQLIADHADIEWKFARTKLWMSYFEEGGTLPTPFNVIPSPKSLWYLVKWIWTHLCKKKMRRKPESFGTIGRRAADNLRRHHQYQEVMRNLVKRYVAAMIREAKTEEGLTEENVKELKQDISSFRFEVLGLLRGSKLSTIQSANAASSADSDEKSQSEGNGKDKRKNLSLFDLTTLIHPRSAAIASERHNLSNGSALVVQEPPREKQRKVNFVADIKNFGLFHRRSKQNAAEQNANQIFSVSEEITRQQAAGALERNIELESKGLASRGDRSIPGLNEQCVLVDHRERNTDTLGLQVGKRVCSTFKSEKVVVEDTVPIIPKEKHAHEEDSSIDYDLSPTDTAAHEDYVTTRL
Briefly: mouse TRPC4 channel inhibitors, dose response, cell-based, HEK293 TRPC4/mu-opioid, Fluo-4 calcium (AID 434942).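 Further: potency of inhibitors blocking the TRPC4 calcium response.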 It counts as functional.

For test [5], the target named is T3, DNA repair and recombination protein RAD54-like (Homo sapiens, UniProt Q92698).
T3 sequence (Q92698 whole entry): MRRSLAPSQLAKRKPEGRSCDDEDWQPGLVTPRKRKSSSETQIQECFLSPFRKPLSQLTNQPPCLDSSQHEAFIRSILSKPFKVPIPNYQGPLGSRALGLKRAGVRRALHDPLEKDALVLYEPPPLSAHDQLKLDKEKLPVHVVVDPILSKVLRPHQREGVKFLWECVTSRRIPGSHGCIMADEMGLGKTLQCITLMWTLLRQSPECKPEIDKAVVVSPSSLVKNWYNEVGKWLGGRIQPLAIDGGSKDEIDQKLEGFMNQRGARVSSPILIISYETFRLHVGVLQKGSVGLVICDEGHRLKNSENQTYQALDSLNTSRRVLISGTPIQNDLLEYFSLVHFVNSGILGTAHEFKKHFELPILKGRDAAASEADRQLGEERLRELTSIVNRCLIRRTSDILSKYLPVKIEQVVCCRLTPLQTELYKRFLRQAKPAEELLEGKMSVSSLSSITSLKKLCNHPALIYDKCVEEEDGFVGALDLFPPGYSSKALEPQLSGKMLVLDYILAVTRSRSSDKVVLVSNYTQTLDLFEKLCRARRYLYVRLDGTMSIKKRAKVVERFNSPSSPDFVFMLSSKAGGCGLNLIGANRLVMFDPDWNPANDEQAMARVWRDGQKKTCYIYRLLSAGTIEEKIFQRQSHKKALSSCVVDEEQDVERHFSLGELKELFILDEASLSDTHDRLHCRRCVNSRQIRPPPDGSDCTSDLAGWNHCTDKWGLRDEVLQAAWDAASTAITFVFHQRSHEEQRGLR
Kind of test: inhibitors of human RAD54 branch migration, confirmation, biochemical, fluorescence, cherry-picked samples, dose series (AID 651657). Format: functional.

A short description of test [6]: T. cruzi growth inhibition in host cells, dose response, cell-based, plate reader, dry powder, set 2 (AID 652275). Format: functional.
Test [7] deals with T4, Rac GTPase-activating protein 1 (Homo sapiens, UniProt Q9H0H5).
T4 sequence (Q9H0H5 whole entry): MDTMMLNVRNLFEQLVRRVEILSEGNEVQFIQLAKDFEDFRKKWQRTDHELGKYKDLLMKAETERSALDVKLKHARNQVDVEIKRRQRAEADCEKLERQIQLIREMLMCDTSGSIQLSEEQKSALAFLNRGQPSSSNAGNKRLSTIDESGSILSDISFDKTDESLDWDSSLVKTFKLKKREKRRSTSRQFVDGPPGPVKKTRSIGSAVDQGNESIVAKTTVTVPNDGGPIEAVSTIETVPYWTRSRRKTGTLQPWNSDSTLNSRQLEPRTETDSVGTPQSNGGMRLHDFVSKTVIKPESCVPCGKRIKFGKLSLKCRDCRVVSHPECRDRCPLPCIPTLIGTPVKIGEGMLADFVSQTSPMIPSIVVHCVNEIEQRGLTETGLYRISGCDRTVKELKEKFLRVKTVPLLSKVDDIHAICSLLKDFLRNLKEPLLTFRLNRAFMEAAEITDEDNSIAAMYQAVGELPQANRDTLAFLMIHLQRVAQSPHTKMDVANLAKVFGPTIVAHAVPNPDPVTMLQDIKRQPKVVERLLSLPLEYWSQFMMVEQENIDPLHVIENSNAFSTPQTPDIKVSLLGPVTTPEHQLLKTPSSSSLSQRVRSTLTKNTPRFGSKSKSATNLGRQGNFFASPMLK
Briefly: MgcRacGAP GTPase-activating activity inhibitors, confirmation, biochemical, ADP Hunter fluorescence, primary and confirmatory (AID 624330). It counts as functional.

Another test concerns the target Albumin (Bos taurus, UniProt P02769). Kind of test: Counterscreen for inhibitors of T-cell receptor (TCR)-CD3 interaction: Fluorescence-based biochemical high throughput dose response assay to identify inhibitors of T-cell receptor (TCR)-CD3 interaction using a TAMRA-labeled BSA probe. Format: functional. In general terms: A counterscreen serves to expose hits that act by an unwanted route or on another target.

Test [8] deals with T5, Histone-lysine N-methyltransferase NSD2 (Homo sapiens, UniProt O96028).
T5 sequence (O96028 whole entry): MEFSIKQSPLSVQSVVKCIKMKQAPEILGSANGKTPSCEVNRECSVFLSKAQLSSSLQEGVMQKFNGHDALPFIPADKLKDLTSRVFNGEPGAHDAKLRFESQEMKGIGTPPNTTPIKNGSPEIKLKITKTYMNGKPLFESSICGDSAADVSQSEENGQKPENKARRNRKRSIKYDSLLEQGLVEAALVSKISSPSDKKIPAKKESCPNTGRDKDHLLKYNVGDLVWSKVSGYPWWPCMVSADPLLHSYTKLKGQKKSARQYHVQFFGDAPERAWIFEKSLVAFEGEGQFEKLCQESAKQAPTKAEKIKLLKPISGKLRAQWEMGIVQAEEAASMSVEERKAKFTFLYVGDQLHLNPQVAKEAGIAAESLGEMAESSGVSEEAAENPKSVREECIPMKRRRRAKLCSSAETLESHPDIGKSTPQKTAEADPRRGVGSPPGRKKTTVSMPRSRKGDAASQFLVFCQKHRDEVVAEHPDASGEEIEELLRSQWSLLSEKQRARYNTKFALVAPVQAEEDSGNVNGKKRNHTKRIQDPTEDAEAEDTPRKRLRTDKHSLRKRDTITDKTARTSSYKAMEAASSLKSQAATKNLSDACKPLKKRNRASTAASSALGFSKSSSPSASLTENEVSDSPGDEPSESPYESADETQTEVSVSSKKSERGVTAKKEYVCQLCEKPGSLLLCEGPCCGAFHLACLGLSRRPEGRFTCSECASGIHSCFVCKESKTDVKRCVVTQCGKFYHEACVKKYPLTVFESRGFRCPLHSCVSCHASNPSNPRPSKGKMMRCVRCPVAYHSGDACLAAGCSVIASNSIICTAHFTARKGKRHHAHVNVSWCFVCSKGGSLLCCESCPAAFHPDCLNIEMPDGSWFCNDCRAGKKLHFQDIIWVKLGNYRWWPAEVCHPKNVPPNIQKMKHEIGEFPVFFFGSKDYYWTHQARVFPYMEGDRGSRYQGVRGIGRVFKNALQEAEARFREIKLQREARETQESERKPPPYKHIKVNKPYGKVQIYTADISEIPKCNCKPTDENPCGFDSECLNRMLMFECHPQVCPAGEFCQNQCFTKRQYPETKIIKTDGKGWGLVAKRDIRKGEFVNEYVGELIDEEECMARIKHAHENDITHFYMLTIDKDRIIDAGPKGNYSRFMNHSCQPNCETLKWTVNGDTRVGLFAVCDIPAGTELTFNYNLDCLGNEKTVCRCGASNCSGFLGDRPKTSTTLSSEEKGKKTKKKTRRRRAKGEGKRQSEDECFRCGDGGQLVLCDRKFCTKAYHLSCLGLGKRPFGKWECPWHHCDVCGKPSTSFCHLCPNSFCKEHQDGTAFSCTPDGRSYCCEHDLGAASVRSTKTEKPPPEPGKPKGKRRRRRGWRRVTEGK
Format: biochemical.

The target in test [9] is T6, Heat shock factor protein 1 (Mus musculus, UniProt P38532).
T6 sequence (P38532 whole entry): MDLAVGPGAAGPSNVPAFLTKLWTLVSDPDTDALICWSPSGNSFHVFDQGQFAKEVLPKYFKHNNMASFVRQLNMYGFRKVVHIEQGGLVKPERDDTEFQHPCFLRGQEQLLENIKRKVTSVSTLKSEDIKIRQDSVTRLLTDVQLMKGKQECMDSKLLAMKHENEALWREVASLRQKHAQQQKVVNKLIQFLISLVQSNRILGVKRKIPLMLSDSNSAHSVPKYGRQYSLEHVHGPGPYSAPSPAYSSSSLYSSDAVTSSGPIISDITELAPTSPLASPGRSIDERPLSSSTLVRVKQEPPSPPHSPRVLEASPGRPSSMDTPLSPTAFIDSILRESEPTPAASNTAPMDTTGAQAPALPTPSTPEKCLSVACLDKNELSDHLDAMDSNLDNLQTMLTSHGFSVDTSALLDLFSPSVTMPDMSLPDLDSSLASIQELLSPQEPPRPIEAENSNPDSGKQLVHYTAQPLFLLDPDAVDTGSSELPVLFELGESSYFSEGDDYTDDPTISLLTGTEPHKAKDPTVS
Kind of test: HSF1 potentiators in luciferase reporter cells, confirmation, cell-based, NIH3T3, luminescence, dose retest (AID 435004).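 Further: stress induced by proteasome inhibitor MG132 added 30 min after compound; luciferase reporter driven by HSF1 response element in NIH3T3 cells; actives raise luminescence as potentiators of the MG132 stress response.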 It counts as functional. For orientation: In a reporter assay the amount or activity of a reporter protein is the signal.

Sequence of Albumin (P02769 whole entry): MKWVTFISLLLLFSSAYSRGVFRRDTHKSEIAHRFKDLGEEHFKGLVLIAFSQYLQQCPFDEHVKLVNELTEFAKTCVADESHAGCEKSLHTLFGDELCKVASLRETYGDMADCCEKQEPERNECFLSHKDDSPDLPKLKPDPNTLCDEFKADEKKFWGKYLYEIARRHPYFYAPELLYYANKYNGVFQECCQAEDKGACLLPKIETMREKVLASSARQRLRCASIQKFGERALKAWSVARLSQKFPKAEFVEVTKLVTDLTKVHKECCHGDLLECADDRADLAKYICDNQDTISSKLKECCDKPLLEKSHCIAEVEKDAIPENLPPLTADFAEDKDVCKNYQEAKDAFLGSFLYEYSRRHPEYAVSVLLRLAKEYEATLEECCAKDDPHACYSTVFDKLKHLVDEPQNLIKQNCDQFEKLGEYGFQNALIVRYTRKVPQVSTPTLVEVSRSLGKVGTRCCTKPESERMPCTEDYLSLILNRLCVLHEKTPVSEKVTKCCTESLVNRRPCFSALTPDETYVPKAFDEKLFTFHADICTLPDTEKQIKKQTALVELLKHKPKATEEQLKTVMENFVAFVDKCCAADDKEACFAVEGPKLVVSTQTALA

On to `Cc1ccc(-c2cc(C(=O)NCc3ccccn3)c3ccccc3n2)cc1C`, for which the IC50 in test [1] was > 47.1 µM (inactive). The EC50 in test [2] is > 53 µM (inactive). Besides, the concentration at half-maximal activity (AC50) – broadly, the concentration at which the activity in the assay is half-maximal – in test [3] is 32.7 µM (active). Regarding `Cc1ccc2nc(C)cc(Nc3ccc4c(c3)OCCO4)c2c1`, in [4], the EC50 was 2.99 µM (active). The half-maximal activity concentration (AC50) in test [5] was 37.2 µM (active). `COC[C@H](C)N1C[C@H](C)[C@@H](CN(C)Cc2ccc(Cl)cc2)Oc2c(NC(=O)c3ccncc3)cccc2C1=O`: the concentration at half-maximal activity (AC50) in [6] was 0.00139 µM (active). With `O=C(COc1ccc(-n2cnnn2)cc1)Nc1cc(Cl)cc(Cl)c1`, the AC50 in [3] is 18.1 µM (active).

Regarding `CN(C)C=O.O=C(O)c1ccccc1NS(=O)(=O)c1ccc(N/N=C/c2ccc(O)c(O)c2)c([N+](=O)[O-])c1`, the values for the IC50 (in [7]; on Albumin) were 60.7 µM (active) and > 94.1 µM (inactive), respectively. Further, the AC50 in [8] is 1.71 µM (active). Consider `O=C(c1ccncc1)N1CCCCN2[C@@H](CO)[C@H](c3ccc(-c4ccccc4)cc3)[C@@H]2C1`, for which the concentration at half-maximal activity (AC50) in test [6] was 4.5 µM (active).

Turning to `COCC(=O)N1CCCCN2[C@@H](CO)[C@H](c3ccc(-c4cccc(C)c4)cc3)[C@@H]2C1`, the AC50 in [6] was 1.42 µM (active). For the compound `CC(Cc1ccccc1)NCC(=O)Nc1cc(N(C)C)nc2ccccc12` (centres undefined), the EC50 in test [9] was > 260 µM (inactive). Further, the AC50 in test [5] is 42.1 µM (active).
